These are literature values, as cited in publication PMC2760809 (Nucleic Acids Research, 2009).

This series has as its target many RNA molecules, including HIV TAR RNA and group I introns. The following applies: read-out: Kd of arginine for RNA molecules.

Broadly, the Kd is the equilibrium constant for the complex coming apart. `N=C(N)NCCC[C@H](N)C(=O)O` [Arginine]: the equilibrium dissociation constant (Kd) was above 2 mM.
